Measured values from PMC11174489, “In Vitro Activation of Human Adrenergic Receptors and Trace Amine-Associated Receptor 1 by Phenethylamine Analogues Present in Food Supplements” (Nutrients, 2024).
Read-outs that look alike come from different tables or passages of the source.

Assays:
[1] = biological target: T1, human adrenergic receptor (ADR) α2A (Homo sapiens, UniProt P08913); experiment: ADRα2A activation, Ca2+ influx (Fluo-8) in overexpressing chem-1 cells; assay type: cell-based; conditions: for EC50: Ca2+ response, chem-1 cells, average (95% confidence interval), 7–9 experiments; for potency at ADRα2A, times lower compared to adrenaline: relative to the endogenous agonist adrenaline
T1 construct: host or cells: rat chem-1 cells
T1 sequence (P08913 1-465): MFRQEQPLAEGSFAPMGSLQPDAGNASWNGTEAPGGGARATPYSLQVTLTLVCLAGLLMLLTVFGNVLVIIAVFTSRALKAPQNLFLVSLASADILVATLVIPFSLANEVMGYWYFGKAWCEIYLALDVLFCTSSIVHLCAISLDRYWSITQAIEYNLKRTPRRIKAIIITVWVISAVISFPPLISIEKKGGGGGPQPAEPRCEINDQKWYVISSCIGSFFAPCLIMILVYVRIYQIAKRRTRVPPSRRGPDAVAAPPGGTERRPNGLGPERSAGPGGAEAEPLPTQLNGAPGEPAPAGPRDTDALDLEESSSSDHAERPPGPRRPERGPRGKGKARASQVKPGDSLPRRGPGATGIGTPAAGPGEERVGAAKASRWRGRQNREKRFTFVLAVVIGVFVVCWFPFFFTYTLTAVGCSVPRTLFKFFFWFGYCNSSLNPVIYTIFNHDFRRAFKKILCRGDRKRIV

[2] = biological target: T2, human adrenergic receptor (ADR) β2 (Homo sapiens, UniProt P07550); experiment: ADRβ2 activation, Ca2+ influx (Fluo-8) in overexpressing chem-1 cells; assay type: cell-based; conditions: for ADRβ2 Emax: % of maximal signal obtained by adrenaline, average (95% CI); for EC50: Ca2+ response, chem-1 cells, average (95% confidence interval), 7–9 experiments
T2 construct: host or cells: rat chem-1 cells
T2 sequence (P07550 whole entry): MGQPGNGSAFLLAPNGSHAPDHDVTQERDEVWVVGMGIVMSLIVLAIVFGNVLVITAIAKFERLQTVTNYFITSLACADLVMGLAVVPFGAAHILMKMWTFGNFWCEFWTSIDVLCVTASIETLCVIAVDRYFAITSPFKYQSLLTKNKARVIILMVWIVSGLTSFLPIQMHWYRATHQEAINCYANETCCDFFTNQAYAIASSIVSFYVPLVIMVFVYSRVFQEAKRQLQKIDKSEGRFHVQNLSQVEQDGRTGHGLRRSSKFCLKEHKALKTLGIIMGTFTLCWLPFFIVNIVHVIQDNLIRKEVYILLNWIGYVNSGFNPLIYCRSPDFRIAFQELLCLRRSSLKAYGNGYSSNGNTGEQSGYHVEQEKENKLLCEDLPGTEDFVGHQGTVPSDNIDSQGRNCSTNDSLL

[3] = biological target: T3, human adrenergic receptor (ADR) α1B (Homo sapiens, UniProt P35368); experiment: ADRα1B activation, Ca2+ influx (Fluo-8) in overexpressing chem-1 cells; assay type: cell-based; conditions: for Emax: Chem-1, read-out: ADRα1B Emax; for ADRα1B Emax: % of maximal signal obtained by adrenaline, average (95% CI)
T3 construct: host or cells: rat chem-1 cells
T3 sequence (P35368 1-520): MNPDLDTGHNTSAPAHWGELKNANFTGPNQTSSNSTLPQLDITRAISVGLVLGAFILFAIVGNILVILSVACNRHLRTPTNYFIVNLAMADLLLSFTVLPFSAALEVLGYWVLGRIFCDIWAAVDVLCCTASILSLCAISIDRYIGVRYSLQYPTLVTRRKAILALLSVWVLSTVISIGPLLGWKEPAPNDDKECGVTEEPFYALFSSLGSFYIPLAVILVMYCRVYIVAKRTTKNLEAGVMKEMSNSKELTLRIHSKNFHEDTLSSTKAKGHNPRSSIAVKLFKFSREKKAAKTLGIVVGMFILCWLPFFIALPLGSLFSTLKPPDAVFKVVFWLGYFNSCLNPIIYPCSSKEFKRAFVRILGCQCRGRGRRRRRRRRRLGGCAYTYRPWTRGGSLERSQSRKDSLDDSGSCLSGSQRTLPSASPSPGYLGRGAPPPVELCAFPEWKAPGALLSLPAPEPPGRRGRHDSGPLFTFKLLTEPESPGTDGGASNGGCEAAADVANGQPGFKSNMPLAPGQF
Text: (§1) Cells overexpressing human ADRs α1A, α1B, α1D, α2A, α2B, β1 and β2 (Eurofins Discovery Services, St. Charles, MO, USA, product numbers: HTS087RTA, HTS158RTA, HTS216RTA, HTS096RTA, HTS157LRTA, HTS104RTA and HTS073RTA, respectively) were used to study the potency (EC50) and efficacy (Emax) of the selected compounds for these receptors by quantifying Ca^2+ influx upon receptor activation. ADRα1A, α1B, α1D, α2A, β1 and β2 were overexpressed in rat chem-1 cells. ADRα2B was overexpressed in HEK293 cells. The cells were seeded (10,000–50,000 cells/well) in a black 96-well plate (VWR International, Leuven, Belgium) and incubated at 37 °C and 5% CO2 for 24 h. After 24 h, the cells were washed with Hank’s balanced salt solution (HBSS) (Gibco, Paisley, UK) containing 0.35 g/L sodium bicarbonate and incubated with 5 µg/mL Fluo-8 AM in HBSS (pH 7.4) supplemented with 2.5 mM probenecid for 1 h. […] Peak tops of the obtained fluorescence response–time curves were corrected for baseline fluorescence and used to construct concentration–response relationships.
(§2) Concentration–response relationships for TAAR1 activation are presented as percentages of the maximal intracellular cAMP level induced by full the TAAR1 agonist phenethylamine and corrected for baseline cAMP accumulation. […] Experiments were run in duplicate in 7–9 independent experiments for ADR and were run in 3–5 independent experiments for TAAR1.

[4] = biological target: T4, human adrenergic receptor (ADR) β1 (Homo sapiens, UniProt P08588); experiment: ADRβ1 activation, Ca2+ influx (Fluo-8) in overexpressing chem-1 cells; assay type: cell-based; conditions: for ADRβ1 Emax: % of maximal signal obtained by adrenaline, average (95% CI); for Emax: Chem-1, read-out: ADRβ1 Emax; for potency at ADRβ1, times less potent than adrenaline: relative to the endogenous agonist adrenaline
T4 construct: host or cells: rat chem-1 cells
T4 sequence (P08588 whole entry): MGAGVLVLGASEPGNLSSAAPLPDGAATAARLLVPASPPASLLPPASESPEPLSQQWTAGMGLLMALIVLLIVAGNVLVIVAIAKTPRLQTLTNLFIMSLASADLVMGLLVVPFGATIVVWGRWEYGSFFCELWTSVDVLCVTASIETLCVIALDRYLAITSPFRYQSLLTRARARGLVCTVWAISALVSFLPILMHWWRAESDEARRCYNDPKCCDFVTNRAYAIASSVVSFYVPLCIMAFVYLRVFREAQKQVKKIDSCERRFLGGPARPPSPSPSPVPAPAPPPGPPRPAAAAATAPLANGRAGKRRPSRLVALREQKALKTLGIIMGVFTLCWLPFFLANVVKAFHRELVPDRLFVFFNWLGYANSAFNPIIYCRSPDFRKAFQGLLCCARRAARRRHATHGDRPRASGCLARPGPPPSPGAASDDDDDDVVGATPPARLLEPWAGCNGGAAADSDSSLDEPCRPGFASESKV
Text: as §1, §2

[5] = set-up: method as in earlier work; conditions: humans; ref 47 (Feng et al. 2012); cited from earlier work
[6] = set-up: method as in PMID 33227193, PMID 31984737; conditions: humans, n = 3, cited from earlier work

Question: With `CNCC(O)c1ccccc1` (stereo not drawn) [Halostachine, halostachine] as the compound, how does the EC50 [1] read?
Answer: > 300 µM

Question: And the “ADRβ2 Emax” value [2]?
Answer: -

Question: And the EC50 [2]?
Answer: > 300 µM

Question: And the EC50 [3]?
Answer: 1.1 µM

Question: What about the Emax [3] of the same compound?
Answer: 77%

Question: And the EC50 [4]?
Answer: > 300 µM

Question: What about the “ADRβ1 Emax” value [4] of the same compound?
Answer: -

Question: What does the source list for `CNCC(O)c1ccc(O)cc1` (stereo not drawn) [p-Synephrine, p-synephrine]?
Answer: EC50 [1]: 100 µM; Emax ([1]; Chem-1, % of maximal signal obtained by adrenaline, average (95% CI)): 89%; potency at ADRα2A, times lower compared to adrenaline [1]: > 12000 times; ADRβ2 Emax [2]: -; EC50 [2]: > 300 µM; Emax [3]: 91%

Question: Which results are given for `Oc1ccc(CC2NCCc3cc(O)c(O)cc32)cc1` (stereo not drawn) [Higenamine, higenamine]?
Answer: EC50 [1]: > 300 µM; EC50 [2]: 0.47 µM; Emax ([2]; Chem-1): 31%; potency at ADRβ2, times less potent than adrenaline ([2]; relative to the full agonist adrenaline): seven; maximal plasma concentration [5]: 8.4 nM; EC50 [3]: > 300 µM; ADRα1B Emax [3]: -; EC50 [4]: 0.034 µM; Emax [4]: 105%; potency at ADRβ1, times less potent than adrenaline [4]: ~3 times

Question: Which results are given for `CC(C)CC(C)N` (stereo not drawn)?
Answer: EC50 [1]: > 300 µM; ADRβ2 Emax [2]: -; EC50 [2]: > 300 µM; EC50 [3]: > 300 µM; ADRα1B Emax [3]: -; EC50 [4]: > 300 µM; ADRβ1 Emax [4]: -

Question: For `CN(C)CCc1ccccc1` [Dimethylphenethylamine, N,N-dimethylphenethylamine], which EC50 [1] is on record?
Answer: > 300 µM

Question: What about the “ADRβ2 Emax” value [2] of the same compound?
Answer: -

Question: And the EC50 [2]?
Answer: > 300 µM

Question: What about the EC50 [3] of the same compound?
Answer: 6.1 µM

Question: And the Emax [3]?
Answer: 19%

Question: What about the EC50 [4] of the same compound?
Answer: > 300 µM

Question: What about the “ADRβ1 Emax” value [4] of the same compound?
Answer: -

Question: With `CN(C)CCO` [Dimethylaminoethanol, dimethylaminoethanol] as the compound, how does the EC50 [1] read?
Answer: > 300 µM

Question: And the “ADRβ2 Emax” value [2]?
Answer: -

Question: And the EC50 [2]?
Answer: > 300 µM

Question: And the EC50 [3]?
Answer: > 300 µM

Question: And the “ADRα1B Emax” value [3]?
Answer: -

Question: And the EC50 [4]?
Answer: > 300 µM

Question: And the “ADRβ1 Emax” value [4]?
Answer: -

Question: For `NCC(O)c1ccc(O)cc1` (stereo not drawn) [p-Octopamine, p-octopamine], which EC50 [1] is on record?
Answer: > 300 µM

Question: And the “ADRβ2 Emax” value [2]?
Answer: -

Question: And the EC50 [2]?
Answer: > 300 µM

Question: And the EC50 [3]?
Answer: 3.9 µM

Question: What about the Emax [3] of the same compound?
Answer: 94%

Question: With `CC(CN)c1ccccc1` (stereo not drawn) [β-Methylphenethyl-amine, beta-methylphenethylamine] as the compound, how does the EC50 [1] read?
Answer: > 300 µM

Question: And the “ADRβ2 Emax” value [2]?
Answer: -

Question: And the EC50 [2]?
Answer: > 300 µM

Question: What about the EC50 [3] of the same compound?
Answer: > 300 µM

Question: What about the “ADRα1B Emax” value [3] of the same compound?
Answer: -

Question: What about the EC50 [4] of the same compound?
Answer: > 300 µM

Question: And the “ADRβ1 Emax” value [4]?
Answer: -

Question: Which “ADRα2A Emax” value ([1]; % of maximal signal obtained by adrenaline, average (95% CI)) does the source give for `CN(C)CCc1ccc(O)cc1` [Hordenine, hordenine] here?
Answer: 12%

Question: And the EC50 [1]?
Answer: 690 µM

Question: What about the “potency at ADRα2A, times lower compared to adrenaline” value [1] of the same compound?
Answer: > 12000 times

Question: What about the Human plasma level ([6]; 5.5 mg oral dose) of the same compound?
Answer: 15 nM

Question: And the Human plasma level ([6]; 100 mg oral dose)?
Answer: 2.7 nM

Question: What about the “ADRβ2 Emax” value [2] of the same compound?
Answer: -

Question: And the EC50 [2]?
Answer: > 300 µM

Question: What about the EC50 [3] of the same compound?
Answer: 5.7 µM

Question: And the Emax [3]?
Answer: 37%

Question: What about the EC50 [4] of the same compound?
Answer: > 300 µM

Question: And the “ADRβ1 Emax” value [4]?
Answer: -

Question: Which EC50 [1] does the source give for `CC(C)NCC(O)c1ccc(O)cc1` (stereo not drawn) [Isopropyloctopamine, isopropyloctopamine] here?
Answer: > 300 µM

Question: What about the “ADRβ2 Emax” value [2] of the same compound?
Answer: -

Question: What about the EC50 [2] of the same compound?
Answer: > 300 µM

Question: What about the EC50 [3] of the same compound?
Answer: > 300 µM

Question: What about the “ADRα1B Emax” value [3] of the same compound?
Answer: -

Question: With `CNC(C)C(O)c1ccc(O)cc1` (stereo not drawn) [Methylsynephrine] as the compound, how does the EC50 [1] read?
Answer: > 300 µM

Question: And the “ADRβ2 Emax” value [2]?
Answer: -

Question: And the EC50 [2]?
Answer: > 300 µM

Question: And the EC50 [3]?
Answer: > 300 µM

Question: And the “ADRα1B Emax” value [3]?
Answer: -

Question: And the EC50 [4]?
Answer: 25 µM

Question: What about the Emax [4] of the same compound?
Answer: 75%

Question: And the “potency at ADRβ1, times less potent than adrenaline” value [4]?
Answer: approximately 2500 times

Question: With `CCC(C)CC(C)N` (stereo not drawn) [1,3-Dimethylamylamine, 1,3-dimethylamylamine] as the compound, how does the EC50 [1] read?
Answer: > 300 µM

Question: What about the “ADRβ2 Emax” value [2] of the same compound?
Answer: -

Question: What about the EC50 [2] of the same compound?
Answer: > 300 µM

Question: What about the EC50 [3] of the same compound?
Answer: > 300 µM

Question: And the “ADRα1B Emax” value [3]?
Answer: -

Question: What about the EC50 [4] of the same compound?
Answer: > 300 µM

Question: What about the “ADRβ1 Emax” value [4] of the same compound?
Answer: -

Question: Which results are given for `CC(C)CCCC(C)N` (stereo not drawn)?
Answer: EC50 [1]: > 300 µM; ADRβ2 Emax [2]: -; EC50 [2]: > 300 µM; EC50 [3]: > 300 µM; ADRα1B Emax [3]: -; EC50 [4]: > 300 µM; ADRβ1 Emax [4]: -

Question: With `NCCc1ccccc1` [Phenethylamine, phenethylamine] as the compound, how does the EC50 [1] read?
Answer: > 300 µM

Question: What about the “ADRβ2 Emax” value [2] of the same compound?
Answer: -

Question: What about the EC50 [2] of the same compound?
Answer: > 300 µM

Question: And the EC50 [3]?
Answer: > 300 µM

Question: What about the “ADRα1B Emax” value [3] of the same compound?
Answer: -

Question: And the EC50 [4]?
Answer: > 300 µM

Question: And the “ADRβ1 Emax” value [4]?
Answer: -

Question: Which results are given for `NCCc1ccc(O)cc1` [Tyramine, tyramine]?
Answer: EC50 [1]: > 300 µM; ADRβ2 Emax [2]: -; EC50 [3]: > 300 µM; ADRα1B Emax [3]: -
